The source of these data is US9487596B2, “Compound isolated from quamoclit, and composition for preventing or treating diabetes containing the compound as an active ingredient” (NANOBIOTECH CO., LTD., priority 2011, dated 2016).

Data set [1] deals with VEGF protein. The data set is described as follows: VEGF protein expression in ARPE 19 cells induced with 30 mM glucose (VEGF ELISA). The format is cell-based, human. The conditions noted are these: 0.5 μg/ml, 72 hours, FIG. 5. As to the method:
In order to confirm inhibition activity of VEGF of the novel compound isolated from the Quamoclit angulata prepared in Example 1 above, ARPE 19 cell line which is human retinal pigment epithelium cell line was treated with the novel compound and expression of the VEGF protein inducting diabetic complications such as diabetic retinopathy, and the like was confirmed.
10% fetal bovine serum (FBS) was added to DMEM; F12 medium and ARPE 19 cell line (ATCC, USA) was cultured therein. In order to induce expression of the VEGF protein from ARPE 19 cell line, the cells were smeared on 60Φ plate at a concentration of 1×10^5 cell/plate, 10% FBS serum-free was added to DMEM low glucose medium, followed by culturing for 24 hours, the culture fluid was changed into a culture fluid containing 30 mM glucose in the DMEM low glucose medium, and the novel compound KRIBB-BH-P was added thereto so that a final concentration thereof was 0.5 μg/ml, followed by culturing for 72 hours in order to confirm production of VEGF protein. […]
The culture fluid of ARPE 19 cell cultured by the above-described method was obtained and an amount of the secreted VEGF was measured using VEGF ELISA kit (R&D, UK).
For orientation: ELISA stands for enzyme-linked immunosorbent assay.

The test system of data set [2] is Min 6 cell line. The data set is described as follows: Insulin secretion in Min 6 pancreatic β cell line (insulin ELISA). The format is cell-based, mouse. The conditions noted are these: Min 6 cells, 25 mM glucose, 0.5 ng/ml, 2 hours, FIG. 6. As to the method:
An insulin secretion acceleration activity of the novel compound KRIBB-BH-P isolated from Quamoclit angulata was confirmed in Min 6 cell line which is a mouse pancreatic β cell tumor.
15% FBS was added to HDMEM medium and Min 6(ATCC, USA) was cultured therein. In order to induce insulin expression from Min 6 cell line, the cells were smeared on a 96 well plate at a concentration of 1×10^4 cell/plate, 15% FBS serum-free was added to DMEM high glucose medium, followed by culturing for 72 hours, washing with PBS buffer solution, and then culturing in HBSS buffer solution for 2 hours, the culture fluid was changed into HBSS buffer solution having 25 mM glucose added thereto, and the novel compound KRIBB-BH-P was added thereto so that a final concentration thereof was 0.5 ng/ml, followed by culturing for 2 hours in order to confirm whether or not the insulin expression was promoted. Here, an amount of insulin expression in cell in which insulin expression was not induced by treatment with 5.5 mM glucose was set as a reference point which is a control group, and a positive control group was prepared by adding amino-guanidine of 1 μM, acarbose of 1 μM, glimepiride of 1 mM. […] The culture fluid of Min 6 cell cultured by the above-described method was obtained and an amount of the secreted insulin was measured using Insulin ELISA kit (R&D, UK).

For data set [3], the system named is lens. Briefly: Lens culture experiment, xylose-induced lens opacity. The following applies: mouse lens, 20 mM xylose, compared to positive control quercetin, FIG. 7. As to the method: In the case of diabetic, a cataract is developed at an early stage, becomes rapidly worse and eyesight is rapidly deteriorated. Diabetes promotes opaque crystalline lens. Accordingly, diabetic cataract inhibition efficiency was examined by a lens culture experiment.
Eyes of a mouse was extracted and put into an iodine solution to be disinfected and then only the lens was extracted. The extracted eyes were put into M199 medium and cultured in a cell incubator. 20 mM xylose was added to the medium to induce lens opacity and the induced lens opacity was measured using CCD camera.

Data set [4] relates to C57BL/Ks DB/DB mouse. Briefly: Blood glucose in diabetic mice. The format is in vivo. The conditions noted are these: oral, each of 0.1 mg/kg, 1 mg/kg and 10 mg/kg, 12 weeks, FIG. 8. As to the method:
Normal mice and diabetic mice were treated with the Quamoclit angulata-derived novel compound and change in diabetic indexes including blood glucose, glycated hemoglobin, and urinary protein was confirmed.
6-week-old mice (Male C57BL/6J mouse, 20 g, Central Lab. Animal Inc., Seoul) and 6-week-old diabetic mice (Male C57BL/Ks DB/DB mouse, 20 g, Central Lab. Animal Inc., Seoul) were purchased and adopted under predetermined temperature (25° C.) and humidity (50%) for 1 week and used in an experiment.
(§1) A normal mouse control group, a diabetic mouse control group, a diabetic mouse group treated with drugs (glimepiride and acarbose), and a diabetic mouse group treated with Quamoclit angulata-derived novel compound were prepared, wherein each group had five mice, and each group treated with the combination administration of the Quamoclit angulata-derived novel compound was treated by oral administration at each concentration of 0.1 mg/kg, 1 mg/kg and 10 mg/kg and raised for 12 weeks. A change in blood glucose in mice of each group was measured every 2 weeks and urine was collected every 6 weeks to measure a urinary protein concentration, and mice was raised for 12 weeks and blood thereof was collected to measure glycated hemoglobin concentration.

Data set [5] deals with C57BL/6J mouse. The data set is described as follows: Oral glucose tolerance test in high-fat diet mice. The following applies: oral dosing 1, 2, 4, 8, 16, 24 hours before glucose 2 g/kg, result for the 24 hours group, FIG. 9. The class given is in vivo. As to the method:
In order to conduct an oral glucose tolerance test, a 5-week-old mouse (Male C57BL/6J, 19 g, Koatech, Pyeongtaek-si, Gyeonggi-do, Korea) was purchased and adopted under predetermined temperature (25° C.) and humidity (50%) for 1 week and used in an experiment. A general diet group having a general feed as a food and a high-fat diet group having a high-fat feed as a feed were prepared, wherein each group had five mice, and raised for 2 weeks. At the time of two weeks after feeding with high-fat diet, the experimental mice were fasting for 16 hours, and the fasting blood glucose was measured, and then, the sample was orally administered at 1, 2, 4, 8, 16, and 24 hours before measuring the blood glucose, followed by oral administration of glucose 2 g/kg (body weight) and blood glucose thereof was measured every 30 minutes.

The subject of data set [6] is diabetic mouse. The data set is described as follows: Glycated hemoglobin (HbAlc) in diabetic mice (ELISA). The format is in vivo. The following applies: oral 10 mg/kg, compared to the normal mouse control group (so in the source), FIG. 10. As to the method: as §1
In order to decrease complications developed in patients receiving diabetes treatment, it is important to maintain blood glucose at an appropriate level. Since blood glucose measured at one time point may be changed by various factors, the most widely used test with a purpose of identifying a long-term change in regulation of blood glucose is glycated hemoglobin (HbAlc). […] Since the glycated hemoglobin reflects an average blood glucose value for 2 to 4 months, it is useful for identify a degree of regulation of blood glucose in a long term. […]

For data set [7], the system named is diabetic model mouse. The data set is described as follows: Creatinine in blood and urine of diabetic mice (ELISA). The class given is in vivo. The conditions noted are these: oral, 12 weeks, FIG. 11. The source says: Diabetic patients are common to have both of kidney and heart complication. Diabetes may damage kidney which filters and excretes our body's waste. Through creatinine test, a concentration of creatinine in a blood may be measured and a function of kidney may be evaluated creatinine, which is a product obtained by dehydrating creatine produced after protein is used in muscle, is present in a blood with an extremely small amount. In the case in which a function of the kidney is deteriorated, creatinine may not be excreted. Urine and blood from diabetic model mouse of each group treated by oral administration for 12 weeks were collected, and creatinine was measured using ELISA kit (R&D, USA).

Data set [8] relates to diabetic mouse. The data set is described as follows: Liver toxicity test: alanine transaminase in blood of diabetic mice. The format is in vivo. The following applies: oral 0.1-10 mg/kg, 12 weeks, FIG. 12. On the procedure: A 6-week-old mouse and a 6-week-old diabetic mouse which are the same as Example 5 above were adapted under predetermined temperature (25° C.) and humidity (50%) for 1 week and used in a liver toxicity test.
A normal mouse control group, a diabetic mouse control group, and each diabetic mouse group treated with Quamoclit angulata-derived novel compound by oral administration at each concentration of 0.1 mg/kg, 1 mg/kg and 10 mg/kg were prepared, wherein each group had five mice, and raised for 12 week. After raising the mice for 12 weeks, blood thereof was collected and a concentration of alanine transaminase was measured.
The alanine transaminase, which is a metabolic enzyme of amino acid, is used in a representative test for diagnosis and result observation.
In order to confirm effects of the Quamoclit angulata-derived novel compound on liver, a normal mouse control group, a diabetic mouse control group and each group treated with Quamoclit angulata-derived novel compound by oral administration at each concentration of 0.1 mg/kg, 1 mg/kg and 10 mg/kg were raised for 12 weeks and blood thereof were collected and a change in alanine transaminase measured using ELISA kit (Cusabio biotech, Japan).

The subject of data set [9] is diabetic mouse. The data set is described as follows: Liver function: bilirubin in blood of diabetic mice (ELISA). The following applies: blood after 12 weeks, FIG. 13. The class given is in vivo. On the procedure: In order to confirm whether or not liver function was normal in the group treated with Quamoclit angulata-derived novel compound, bilirubin value was measured using ELISA kit (Cusabio biotech, Japan) using blood collected in Example above. […] Therefore, it may be appreciated that the composition of the present invention is safe composition not causing abnormal liver function.

The test system of data set [10] is diabetic mouse. Briefly: Insulin resistance (HOMA-IR) and β-cell functionality (HOMA-beta) in diabetic mice. The class given is in vivo. The conditions noted are these: FIG. 14. As to the method:
Insulin and blood glucose of the diabetic mouse group raised under conditions of Example 7 above were measured by the fasting blood test or glucose tolerance test and insulin sensitivity index thereof was calculated.
Insulin resistance was evaluated using the insulin sensitivity index which is homeostasis assessment (HOMA)-IR and β-cell Functionality was evaluated by HOMA-beta.
HOMA-IR=(Fasting insulin (μIU/mL)×Fasting glucose ([…]))/22.5 HOMA-beta=20×Fasting insulin (U/mL)/Fasting glucose (mmol/L)−3.5

Data set [11] deals with adiponectin. The data set is described as follows: Adiponectin concentration in blood of diabetic mice (ELISA). The class given is in vivo, mouse. The conditions noted are these: FIG. 15. The source says:
It has consistently proven that adiponectin is secreted from fat cells and abundantly present in blood, is decreased in an obesity patient or type 2 diabetic. In addition, low hypoadiponectinemia is on the rise as a new risk factor of artherosclerotic disease, and a concentration of adiponectin in diabetic patients, in particular, patients accompanying macrovascular complications is decreased. That is, adiponectin has an anti-obesity action, an anti-diabetic action, anti-atherogenic action and an inhibition action of active oxygen generation. A concentration of adiponectin in the blood of the diabetic mouse group raised under conditions of Example 7 was measured using ELISA kit (R&D, USA).

The test system of data set [12] is glucagon. Briefly: Plasma glucagon concentration in diabetic mice. The format is in vivo, mouse. The text has this:
In type 2 diabetic patients, blood glucose is increased, insulin secretion by glucose intake is delayed, and glucagon is increased. It is generally known that decrease in a ratio of insulin to plasma glucagon is associated with deterioration of diabetes. Therefore, a concentration of glucagon of the diabetic mouse group raised under conditions of Example 7 above was confirmed.

The target in data set [13] is T1, DPP-IV (Mus musculus, UniProt P28843).
T1 construct: from tissue
T1 sequence (P28843 whole entry): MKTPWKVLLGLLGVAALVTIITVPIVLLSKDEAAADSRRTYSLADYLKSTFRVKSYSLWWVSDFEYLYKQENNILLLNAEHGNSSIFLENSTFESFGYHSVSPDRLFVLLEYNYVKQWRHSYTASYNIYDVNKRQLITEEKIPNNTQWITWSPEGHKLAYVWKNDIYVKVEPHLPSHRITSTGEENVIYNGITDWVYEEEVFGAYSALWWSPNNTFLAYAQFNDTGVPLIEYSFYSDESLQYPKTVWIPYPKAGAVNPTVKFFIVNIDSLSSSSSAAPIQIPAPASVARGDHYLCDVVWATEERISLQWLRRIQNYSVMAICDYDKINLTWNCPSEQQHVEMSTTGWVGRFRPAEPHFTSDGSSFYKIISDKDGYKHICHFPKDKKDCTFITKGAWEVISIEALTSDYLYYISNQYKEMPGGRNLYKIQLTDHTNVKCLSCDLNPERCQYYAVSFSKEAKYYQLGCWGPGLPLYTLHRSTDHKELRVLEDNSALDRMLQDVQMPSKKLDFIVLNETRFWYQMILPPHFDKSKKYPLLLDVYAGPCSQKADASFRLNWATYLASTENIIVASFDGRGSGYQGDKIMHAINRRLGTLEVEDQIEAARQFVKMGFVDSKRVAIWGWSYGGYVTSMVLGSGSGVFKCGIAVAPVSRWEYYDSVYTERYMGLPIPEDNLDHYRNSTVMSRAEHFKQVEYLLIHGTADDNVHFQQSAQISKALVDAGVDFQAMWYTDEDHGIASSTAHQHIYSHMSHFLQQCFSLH
Briefly: DPP-IV activity in diabetic mice. The format is in vivo. The conditions noted are these: FIG. 17. The text has this:
Both of GIP and GLP-1 are rapidly decomposed by dipeptidyl peptidase (DPP)-4 which is a series of serine protease. DPP-4 inhibition efficacy of the diabetic mouse group raised under conditions of Example 7 above was confirmed based on the above description.

The test system of data set [14] is alpha-glucosidase. The data set is described as follows: Alpha-glucosidase activity in diabetic mice. The conditions noted are these: FIG. 18. The class given is in vivo, mouse. As to the method: Activity of alpha-glucosidase of the diabetic mouse group raised under conditions of Example 7 above was measured based on the above-description.
The test system of data set [15] is TNF-α. The data set is described as follows: TNF-α concentration in diabetic mice. The format is in vivo, mouse. The conditions noted are these: FIG. 19. As to the method: TNF-α concentration of the diabetic mouse group raised under conditions of Example 7 above was measured based on the above-description.
Data set [16] concerns diabetic mouse. Briefly: Anti-cataract effect: eye lens turbidity in diabetic mice. The format is in vivo. The conditions noted are these: FIG. 20. On the procedure:
Eye lens was isolated from eyeball extracted from the diabetic mouse group raised under conditions of Example 7 above and moved to a well plate and then a photograph thereof was taken by LAS 3000 image analysis system. Turbidity of the eye lens was measured by analyzing the photograph using LAS 300 image analysis program.

`CCCCCC(CCCC(O)CC(=O)O)OC1OC(COC2OC(C)C(OC3CC(O)C(O)C(C)O3)CC2O)C(O)C(O)C1OC1CC(O)C(OC2CC(O)C(OC3CC(O)C(OC)C(C)O3)C(C)O2)C(C)O1` (stereo not shown) [KRIBB-BH-P]: in data set [1], the VEGF expression entry was “decreased”. Moreover, the insulin expression entry in data set [2] is “increased”. The lens opacity entry in data set [3] is “more inhibited”. Moreover, the blood glucose result in [4] is given as “remarkably decreased”. Further, the “efficacy in oral glucose tolerance test (blood glucose)” value in data set [5] is recorded as “highest efficacy”. In addition, the glycated hemoglobin value entry in data set [6] is listed as “remarkably decreased”. In data set [7], the “concentration of creatinine in the blood” value was “decreased” and the “concentration of creatinine in the urine” value was “increased”. Moreover, the liver toxicity entry in [8] is recorded as “no liver toxicity”. Further, the bilirubin value result in [9] is “included in a normal range”. Further, in data set [10], the “insulin resistance (HOMA-IR)” value is given as “remarkably excellent result” and the “β-cell functionality (HOMA-beta)” value is recorded as “remarkably excellent result”. Besides, in [11], the expression of adiponectin entry was “increased”. In data set [12] (compared to the diabetic mouse control group), the “concentration ratio of insulin to glucagon” value was “remarkably increased”. Besides, the “concentration of plasma glucagon” value in data set [12] (lower than that of the group treated with the drugs, FIG. 16) is “remarkably decreased”. Moreover, the “activity of DPP IV” value in data set [13] is “inhibited”. The activity of alpha-glucosidase result in data set [14] was “inhibited”. Besides, the TNF-α concentration result in data set [15] is given as “decreased”. Besides, the “turbidity of the eye lens” value in data set [16] is on record as “decreased”.
